# Results reported in patent US9493466B2, “Treatment of cancer with TOR kinase inhibitors” (Signal Pharmaceuticals, LLC, priority 2011, dated 2016).
# Tests used:
# NET = experiment: Phase 1/2 study Part B: tumor response, NET; type: in vivo, human
# From the text: In Part B, subjects may start Compound 1 at the MTD and/or a lower dose level based on safety, PK and PD data from Part A. Approximately 150 subjects will be treated and evaluated for safety and preliminary antitumor activity after every two cycles of therapy. Tumor types include non-small cell lung cancer (NSCLC), glioblastoma multiforme (GBM), hepatocellular carcinoma (HCC), gastrointestinal neuroendocrine tumor of non-pancreatic origin (NET), diffuse large B-cell lymphoma (DLBCL), multiple myeloma (MM), and hormone receptor positive breast cancer (HRPBC). Up to 20 subjects will be enrolled in each tumor type.
# Subjects will be evaluated for efficacy every 2 cycles through cycle 6 and every 3 cycles thereafter. The primary efficacy variable is response. Tumor assessments, including imaging (CT, MRI and/or PET) of the chest and abdomen and other sites as appropriate, will be performed during Screening. Subjects with brain lesions will also have brain scans at Screening and during follow-up tumor assessments. After Screening, tumor assessments (for all tumors except multiple myeloma) will be performed on completion of Cycles 2, 4 and 6 (i.e., on Cycles 3, 5 and 7/Day 1±7 days) and then every 3 months thereafter (e.g., Cycle 10 and 13/Day 1±7 days). Tumor assessment (for multiple myeloma and only NHL/DLBCL with known or suspected marrow involvement) (bone marrow aspiration and biopsy, with PD biomarker analysis, cytogenetic analysis if abnormally present at Screening) will be performed on completion of Cycles 4, 8, 12 and 16 only (i.e., on Cycles 5, 9, 13 and 17/Day 1±7 days). Cytogenetics need not be repeated if normal at Screening. Tumor response will be based on Response Evaluation Criteria in Solid Tumors (RECIST 1.1), International Workshop Criteria (IWC) for NHL/DLBCL or International Uniform Response Criteria (IURC) for Multiple Myeloma, and RANO for GBM, using the post resection MRI scan as the baseline. Given the difficulty in assessing tumor response following salvage surgery, the primary efficacy endpoint for GBM will be the proportion of subjects progression-free at 6 months from Day 1 relative to efficacy evaluable subjects in the GBM type. Subjects will be evaluated for tumor response on completion of Cycle 2, 4, 6, and so on. A descriptive analysis of evidence of anti-tumor activity will be provided based on clinical and radiographic assessments by the investigator, which includes assessment of target lesion, non-target lesion, new lesion and overall response.
# For Part B, efficacy variables to be analyzed include tumor response at the end of treatment, the proportion of subject alive and progression-free, and duration of response. […]
# [1] = test system: TORC1 (pS6, p4EBP1) and TORC2 (pAkt) pathways; experiment: TOR pathway biomarker measurements in whole blood; type: in vivo, human
# From the text: Parameters to be explored include mTOR biomarker inhibition in blood and tumor, histopathologic response, correlations with pharmacogenomic findings and percentage of inhibition of pAKT (Ser473), phospho-S6RP (Ser235/236 and/or Ser240/244), phospho-4EB-P1 (Thr37/46), and/or other relevant biomarkers in peripheral blood samples and tumor, adverse events and clinical outcome. The pharmacodynamic (PD) measurements are incorporated in this study to evaluate target inhibition of mTORC1 and mTORC2 pathways, the consequences of such inhibition, and PK/PD relationships. In Parts A and B, biomarker analysis will involve measuring pAKT (mTORC2) in protein lysates derived from isolated platelets. Levels of p4EB-P1 and pS6RP (mTORC1), and pAKT (mTORC2), will be measured by flow cytometry using whole blood samples. Likewise, in Parts A and B, pAKT, p4EB-P1, p56, Ki67 and/or other relevant markers to assess Compound 1 activity will be measured in serial tumor biopsies from subjects with accessible disease when possible. The changes of each biomarker will be determined by comparing the levels of biomarkers in pre- and post-treatment samples and, where possible, correlate these with drug exposure in blood, and tissue if available, and tumor response over time. Full details of all statistical analyses and modeling for these outcomes will be described in the statistical analysis plan and final study report.
# TOR Pathway Biomarker Measurements in Whole Blood. Blood samples received from clinical sites were aliquoted into a 96-deepwell plate and rested for 1 hour at 37° C. The samples were stimulated with anti-IgD and LPS for 15 minutes at 37° C. The red blood cells were lysed and the white blood cells were fixed with BD Lyse/Fix Buffer at a ratio of 15:1 buffer to blood for 10 minutes at 37° C. The plates were centrifuged, aspirated, and 1 mL of ice-cold methanol was added to the wells containing fixed white blood cells to permeabilize the cells for intracellular staining. The plates were stored overnight at −80° C. The plates were thawed, centrifuged, aspirated and washed twice with PBS+0.5% BSA. The cells were stained with antibodies specific for the surface markers CD3, CD14, and CD19, and for mTOR pathway markers, including pS6 (S235/236), p4EBP1 (T37/46), and pAKT (S473). The cells were washed twice with PBS and fixed with 1.6% PFA.
# Sample analysis: The samples were analyzed on an 8 color cytometer. Control wells of 8-peak rainbow beads (Spherotech Libertyville, Ill.) were acquired at multiple points during sample acquisition. The median fluorescence intensity (MFI) was computed for each marker from the fluorescence intensity levels in T cells, B cells, and monocytes. The MFI were normalized using the 8-peak rainbow beads and presented as ERF (Equivalent number of Reference Fluorophores). ERFs were calculated from the MFIs using a linear regression transformation carried out on a log-log scale using the rainbow calibration particles with 8 intensities on 8 colors. The percent change from baseline for pS6, p4EBP1, and pAKT in stimulated and non-stimulated T cells, B cells, and monocytes was determined for each patient. The baseline value was an average of two visits (screening and cycle 1/day −1 at 0 hr pre-dose) when available.
smiles,measurement,setting,value
"CO[C@H]1CC[C@H](N2C(=O)CNc3ncc(-c4ccc(C(C)(C)O)nc4)nc32)CC1 [Compound 1, 7-(6-(2-hydroxypropan-2-yl)pyridin-3-yl)-1-((1r,4r)-4-methoxycyclohexyl)-3,4-dihydropyrazino-[2,3-b]pyrazin-2(1H)-one]",tumor metabolic activity by PET imaging,NET; majority of subjects,reductions in tumor metabolic activity
same,patients meeting Stable Disease (RECIST 1.1),NET; patients with sufficient follow up,Six patients
same,"endocrine hormone markers (chromogranin, gastrin, serotonin, glucagon)",NET; some patients,reductions
same,carcinoid syndrome-related symptoms,NET; some patients with refractory baseline symptoms,improvements
same,inhibition of TORC1 and TORC2 biomarkers,"[1]; Part A, doses of 30 mg and higher, up to 5 hours post first dose, stimulated blood",Consistent inhibition
same,TORC1 and TORC2 inhibition,"[1]; Part B, DLBCL patients",observed in the first patient analyzed
same,TORC1 and TORC2 inhibition,"[1]; Part B, GBM patients",observed in majority of patients
same,TORC1 and TORC2 inhibition,"[1]; Part B, HCC patients",observed in majority of patients
same,TORC1 and TORC2 inhibition,"[1]; Part B, MM patients",observed in 2 patients
same,TORC1 and TORC2 inhibition,"[1]; Part B, NSCLC patients",observed in majority of patients
same,"TORC1 and TORC2 inhibition (pAkt, p4EPB1)","[1]; Part B, all cohorts, blood, 1.5 h after dosing, Cycle 1 Day 1 and Day 15, P <0.001",inhibition was observed
